Results published in patent US20110009403A1, “2-MORPHOLINYLPURINES AS INHIBITORS OF PI3K” (S*BIO Pte Ltd., priority 2007, published 2011).
pIC50: −log10 of the molar value.

What was measured:
[1] = system: human breast cancer cell lines; details: six of eight cancer lines inhibited; cited from earlier work
[2] = target: T1, PI3K p110α/p85 (Homo sapiens, UniProt P42336); experiment: PI3K assay ([γ33P]ATP, PtdIns/PtdSer coated plates); format: biochemical; details: 2 μM ATP, 1 hour at RT; read-out: IC50 (PI3Kα)
T1 construct: made in house
Description: Recombinant PI3K p110α/p85 was prepared in-house. Phosphatidylinositol (PtdIns), phosphotidylserine (PtdSer) and all other unspecified chemicals were purchased from Sigma-Aldrich. [γ^33P]ATP and Optiphase scintillant were obtained from Perkin Elmer.
Assays were performed in a final assay volume of 25 μL in 384-well Maxisorp plates (Nunc). Compounds were tested at 8 concentrations in 3-fold serial dilution, generally starting from 10 μM. Maxisorp plates were coated with 20 μL/well of a 1:1 mixture of PtdIns and PtdSer [0.1 mg/mL each dissolved in chloroform:ethanol (3:7)] and left overnight in a fume hood at room temperature (RT) to dry.
The enzyme reaction was created by pipetting 5 μL/well of compound (in 2.5% DMSO), 10 μL/well of enzyme (0.5 μg/mL p110α+1 μg/mL p85), and 10 μL/well of 5 μM ATP with 5 μCi/mL [γ^33P]ATP in assay buffer (final concentrations: 0.2 μg/mL p110α, 2 μM ATP, […] [γ^33P]ATP in 1× assay buffer: 100 mM Tris-HCl pH 7.0, 200 mM NaCl, 8 mM MgCl2). The reaction was incubated for 1 hour at RT and terminated with 30 μL/well of 50 mM EDTA solution. The plate was then washed twice with TBS, dried, and added with 30 μL/well of scintillant before it was counted in a MicroBeta Trilux.

[3] = system: DU145; experiment: Cell-based proliferation assay, DU145; details: Homo sapiens, DU-145; DU145 cells, 96 h treatment
Description: (§1) Human cancer cell lines PC3 and DU145 (human prostate cancer cell lines), were obtained from ATCC. They were cultured in the media according to the ATCC work instructions. PC3 and DU145 cells were seeded at 1,000 cells per well in 96-well plates, respectively. The plates were incubated at 37° C., 5% CO2, for 24 h. Cells were treated with compounds at various concentrations for 96 h. Cell proliferation was then quantified using Celltiter96 Aqueous One Solution Cell Proliferation Assay from Promega (Madison Wis.). Dose response curves were plotted to determine IC50 values for the compounds using XL-fit (ID Business Solution, Emeryville, Calif.).

[4] = target: mTOR (Homo sapiens, UniProt P42345); experiment: mTOR assay (phosphorylation of 4eBP1, [γ33P]-ATP filter plate); format: biochemical; details: 10 μM ATP, 1 hour at room temperature
Description: Truncated mTOR kinase and His-tagged 4eBP1 were produced in-house. [γ^33P]-ATP was purchased from Amersham (GE Healthcare). All chemicals, unless otherwise stated, were from Sigma-Aldrich.
Phosphorylation assays were initially performed in a final volume of 20 μL in 384-well polypropylene plate (Greiner). Compounds were typically tested over the range from 100 μM to 0.006 μM, in 8 step dilutions, in duplicate. 10 μL/well of 2× Enzyme-Substrate solution (1.5 μg/mL mTOR, 40 μg/mL 4eBP1 in 1× assay buffer: 10 mM Hepes pH 7.5, 50 mM NaCl and 10 mM MnCl2) were first added to the sample plate containing 1 μL/well of test compound in neat DMSO. The reaction was initiated by adding 10 μL/well of 20 μM ATP solution (final assay concentration 10 μM ATP and 0.4 μCi/well of [γ^33P]-ATP). After 1 hour incubation at room temperature, the reaction was terminated with 40 μL/well of 20 mM EDTA/1 mM ATP solution.
50 μL/well of the stopped reaction mix was then transferred to 384-well MultiScreenHTS-PH filter plate (Millipore) pre-added with 50 μL/well of 1% phosphoric acid. The plate was washed 4 times with 120 μL/well of 0.5% phosphoric acid via vacuum filtration. Finally, 10 μL/well of Optiphase™ SuperMix liquid scintillation cocktail (Perkin Elmer) was added. After minimum 1 hour of incubation, counting was performed in a Wallac MicroBeta TriLux scintillation counter using coincidence counting mode with crosstalk correction.

[5] = system: PC3; experiment: Cell-based proliferation assay, PC3; details: Homo sapiens, PC-3; PC3 cells, 96 h treatment
Description: as §1

mTOR, sequence (P42345 1382-2549 limits assumed): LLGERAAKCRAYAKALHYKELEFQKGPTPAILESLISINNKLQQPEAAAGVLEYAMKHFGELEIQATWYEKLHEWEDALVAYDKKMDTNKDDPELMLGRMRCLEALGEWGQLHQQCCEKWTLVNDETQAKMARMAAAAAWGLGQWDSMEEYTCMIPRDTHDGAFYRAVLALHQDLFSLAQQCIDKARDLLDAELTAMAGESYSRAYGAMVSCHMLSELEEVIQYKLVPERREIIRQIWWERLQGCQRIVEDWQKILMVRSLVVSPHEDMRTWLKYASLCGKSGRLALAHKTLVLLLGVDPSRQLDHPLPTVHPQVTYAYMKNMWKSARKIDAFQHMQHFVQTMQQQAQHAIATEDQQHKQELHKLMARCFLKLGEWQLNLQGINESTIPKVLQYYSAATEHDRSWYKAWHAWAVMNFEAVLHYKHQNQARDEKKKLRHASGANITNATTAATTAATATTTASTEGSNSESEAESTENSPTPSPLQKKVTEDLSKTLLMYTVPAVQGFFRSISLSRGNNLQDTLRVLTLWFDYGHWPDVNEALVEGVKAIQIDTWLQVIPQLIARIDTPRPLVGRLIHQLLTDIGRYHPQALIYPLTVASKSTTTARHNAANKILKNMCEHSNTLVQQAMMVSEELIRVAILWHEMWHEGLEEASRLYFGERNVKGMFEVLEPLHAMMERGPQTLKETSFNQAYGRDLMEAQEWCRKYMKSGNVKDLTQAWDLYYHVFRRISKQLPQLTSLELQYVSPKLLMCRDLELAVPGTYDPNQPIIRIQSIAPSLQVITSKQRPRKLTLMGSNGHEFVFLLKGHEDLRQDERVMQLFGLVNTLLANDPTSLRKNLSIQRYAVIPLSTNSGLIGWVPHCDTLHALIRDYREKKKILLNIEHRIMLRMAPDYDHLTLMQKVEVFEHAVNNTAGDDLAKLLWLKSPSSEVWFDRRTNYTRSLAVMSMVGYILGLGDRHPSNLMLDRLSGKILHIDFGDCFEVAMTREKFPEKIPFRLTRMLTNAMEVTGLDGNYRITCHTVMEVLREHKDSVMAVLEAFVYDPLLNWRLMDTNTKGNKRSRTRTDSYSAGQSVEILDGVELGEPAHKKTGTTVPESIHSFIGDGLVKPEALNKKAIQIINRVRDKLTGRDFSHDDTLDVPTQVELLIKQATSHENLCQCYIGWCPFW
T1 sequence (P42336 whole entry): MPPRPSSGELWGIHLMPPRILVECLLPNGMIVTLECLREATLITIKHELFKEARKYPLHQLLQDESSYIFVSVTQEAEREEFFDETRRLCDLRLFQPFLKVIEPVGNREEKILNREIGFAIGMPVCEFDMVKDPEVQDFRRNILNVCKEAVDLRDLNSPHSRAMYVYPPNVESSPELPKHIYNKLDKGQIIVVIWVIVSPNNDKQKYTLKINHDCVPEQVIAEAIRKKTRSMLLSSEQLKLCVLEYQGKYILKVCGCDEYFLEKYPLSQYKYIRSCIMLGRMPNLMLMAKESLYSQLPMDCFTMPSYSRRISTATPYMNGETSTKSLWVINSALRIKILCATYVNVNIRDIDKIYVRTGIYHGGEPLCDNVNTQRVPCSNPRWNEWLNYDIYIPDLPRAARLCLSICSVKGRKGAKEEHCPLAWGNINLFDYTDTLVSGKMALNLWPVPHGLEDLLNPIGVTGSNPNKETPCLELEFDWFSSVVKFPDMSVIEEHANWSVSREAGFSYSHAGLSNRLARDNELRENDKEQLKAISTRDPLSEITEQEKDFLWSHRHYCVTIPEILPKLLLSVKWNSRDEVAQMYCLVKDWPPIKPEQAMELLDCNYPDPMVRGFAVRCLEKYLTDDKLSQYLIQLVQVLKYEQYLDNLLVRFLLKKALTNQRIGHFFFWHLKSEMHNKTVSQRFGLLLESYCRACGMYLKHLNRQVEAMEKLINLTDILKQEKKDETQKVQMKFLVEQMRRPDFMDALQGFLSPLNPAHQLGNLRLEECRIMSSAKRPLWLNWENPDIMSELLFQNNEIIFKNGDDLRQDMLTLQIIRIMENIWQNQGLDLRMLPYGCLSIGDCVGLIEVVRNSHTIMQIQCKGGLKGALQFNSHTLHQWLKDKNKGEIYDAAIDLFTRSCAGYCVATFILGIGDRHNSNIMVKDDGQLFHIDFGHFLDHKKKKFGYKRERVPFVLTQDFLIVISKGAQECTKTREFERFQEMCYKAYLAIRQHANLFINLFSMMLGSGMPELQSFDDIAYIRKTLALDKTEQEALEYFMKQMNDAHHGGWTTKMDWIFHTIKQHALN
T1 sequence (P27986 whole entry partner): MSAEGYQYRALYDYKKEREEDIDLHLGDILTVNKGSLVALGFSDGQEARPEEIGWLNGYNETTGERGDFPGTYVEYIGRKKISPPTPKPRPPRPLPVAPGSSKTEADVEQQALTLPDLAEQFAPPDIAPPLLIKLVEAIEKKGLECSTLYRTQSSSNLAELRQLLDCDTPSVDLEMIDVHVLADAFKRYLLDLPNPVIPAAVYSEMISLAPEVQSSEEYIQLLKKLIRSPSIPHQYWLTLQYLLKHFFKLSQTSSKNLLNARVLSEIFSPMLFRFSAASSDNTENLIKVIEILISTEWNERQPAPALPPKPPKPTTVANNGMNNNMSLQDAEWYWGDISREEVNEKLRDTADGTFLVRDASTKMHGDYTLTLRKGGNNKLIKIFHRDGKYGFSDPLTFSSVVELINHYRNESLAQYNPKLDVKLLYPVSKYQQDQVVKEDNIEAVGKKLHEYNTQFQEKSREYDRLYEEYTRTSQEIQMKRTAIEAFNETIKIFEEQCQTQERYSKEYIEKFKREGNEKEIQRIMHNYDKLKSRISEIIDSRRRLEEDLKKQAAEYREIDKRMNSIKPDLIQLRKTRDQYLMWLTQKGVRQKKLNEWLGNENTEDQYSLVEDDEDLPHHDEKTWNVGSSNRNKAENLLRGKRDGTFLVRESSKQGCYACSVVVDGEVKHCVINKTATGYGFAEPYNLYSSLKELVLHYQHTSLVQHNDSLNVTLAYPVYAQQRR

SMILES | IC50 [1] | pIC50 [2] | pIC50 [3] | pIC50 [4] | pIC50 [5]
CO[C@H]1C[C@@H]2CC[C@@H](C)[C@@](O)(O2)C(=O)C(=O)N2CCCC[C@H]2C(=O)O[C@H]([C@H](C)C[C@@H]2CC[C@@H](OC(=O)C(C)(CO)CO)[C@H](OC)C2)CC(=O)[C@H](C)/C=C(\C)[C@@H](O)[C@@H](OC)C(=O)[C@H](C)C[C@H](C)/C=C/C=C/C=C/1C [CCI-779] | low nanomolar range |  |  |  | 
Oc1cccc(-c2nc(N3CCOCC3)nc3c2ncn3Cc2ccccc2)c1 [Compound 2] |  | > 6.00 | 5.30 to 6.00 | > 6.00 | 
COc1ccc(Cn2cnc3c(-c4cccc(O)c4)nc(N4CCOCC4)nc32)cc1 [Compound 8] |  | > 6.00 | 5.30 to 6.00 | > 6.00 | 
C=CCCn1cnc2c(-c3cccc(O)c3)nc(N3CCOCC3)nc21 [Compound 22] |  | > 6.00 | ≥ 6.00 | > 6.00 | 
Cc1cccc(-n2cnc3c(-c4cccc(O)c4)nc(N4CCOCC4)nc32)c1 [Compound 27, 3-(2-Morpholin-4-yl-9-(3-methylphenyl)-9H-purin-6-yl)-phenol] |  | > 6.00 |  | > 6.00 | ≥ 6.00
N#CCn1cnc2c(-c3cccc(O)c3)nc(N3CCOCC3)nc21 [Compound 35] |  | > 6.00 | 5.30 to 6.00 | > 6.00 | 
CC(c1ccccc1)n1cnc2c(-c3cccc(O)c3)nc(N3CCOCC3)nc21 (stereo not shown) [Compound 36] |  | > 6.00 | 5.30 to 6.00 | > 6.00 | 
Oc1cccc(-c2nc(N3CCOCC3)nc3c2ncn3CC2CC2)c1 [Compound 50] |  | > 6.00 | ≥ 6.00 | > 6.00 | 
c1cc(-c2nc(N3CCOCC3)nc3c2ncn3CC2CC2)c2cc[nH]c2c1 [Compound 51] |  | > 6.00 | 5.30 to 6.00 | > 6.00 | 
Oc1cccc(-c2nc(N3CCOCC3)nc3c2ncn3C2CCCC2)c1 [Compound 54] |  | > 6.00 | ≥ 6.00 | > 6.00 | ≥ 6.00
c1cc(-c2nc(N3CCOCC3)nc3c2ncn3C2CCCC2)c2cc[nH]c2c1 [Compound 63] |  | > 6.00 | 5.30 to 6.00 | > 6.00 | 
CC(C)C(C)n1cnc2c(-c3cccc4[nH]ccc34)nc(N3CCOCC3)nc21 (stereo not shown) [Compound 101] |  | > 6.00 |  | > 6.00 | ≥ 6.00
CCNc1nc2c(-c3cccc(O)c3)nc(N3CCOCC3)nc2n1C(C)CC (stereo not shown) [Compound 122] |  | > 6.00 |  | > 6.00 | 
CCC(C)n1c(NC(C)C)nc2c(-c3cccc(O)c3)nc(N3CCOCC3)nc21 (stereo not shown) [Compound 123, 3-(9-sec-Butyl-8-isopropylamino-2-morpholin-4-yl-9H-purin-6-yl)-phenol] |  | > 6.00 |  | > 6.00 | 
CCC(C)n1c(SC)nc2c(-c3cccc(O)c3)nc(N3CCOCC3)nc21 (stereo not shown) [Compound 124, 3-(9-sec-Butyl-8-methylsulfanyl-2-morpholin-4-yl-9H-purin-6-yl)-phenol] |  | > 6.00 |  | > 6.00 | 
CCC(C)n1c(N2CCCC2)nc2c(-c3cccc(O)c3)nc(N3CCOCC3)nc21 (stereo not shown) [Compound 125] |  | > 6.00 |  | > 6.00 | 

SMILES | IC50 [1] | pIC50 [2] | pIC50 [3] | pIC50 [4] | pIC50 [5]
CCC(C)n1c(-c2ccccc2)nc2c(-c3cccc(O)c3)nc(N3CCOCC3)nc21 (stereo not shown) [Compound 126] |  | > 6.00 |  | > 6.00 | 
CCC(C)n1c(NCCN(C)C)nc2c(-c3cccc(O)c3)nc(N3CCOCC3)nc21 (stereo not shown) [Compound 127] |  | > 6.00 |  | > 6.00 | 
CCC(C)n1c(NCCOC)nc2c(-c3cccc(O)c3)nc(N3CCOCC3)nc21 (stereo not shown) [Compound 128] |  | > 6.00 |  | > 6.00 | 
CCC(C)n1c(Cl)nc2c(-c3cccc(O)c3)nc(N3CCOCC3)nc21 (stereo not shown) [Compound 129] |  | > 6.00 |  | > 6.00 | 
CCC(C)n1c(S(C)(=O)=O)nc2c(-c3cccc(O)c3)nc(N3CCOCC3)nc21 (stereo not shown) [Compound 130, 3-(9-sec-Butyl-8-methanesulfonyl-2-morpholin-4-yl-9H-purin-6-yl)-phenol] |  | > 6.00 |  | > 6.00 | 
Nc1ccc(-c2nc(N3CCOCC3)nc3c2ncn3Cc2cccc([N+](=O)[O-])c2)cn1 [Compound 131] |  | > 6.00 |  | > 6.00 | 
CCC(C)n1cnc2c(-c3ccc(N)nc3)nc(N3CCOCC3)nc21 (stereo not shown) [Compound 132, 5-(9-sec-Butyl-2-morpholin-4-yl-9H-purin-6-yl)-pyridin-2-ylamine] |  | > 6.00 |  | > 6.00 | 
Nc1ccc(-c2nc(N3CCOCC3)nc3c2ncn3C2CCCC2)cn1 [Compound 133] |  | > 6.00 |  | > 6.00 | 
COCC(C)n1cnc2c(-c3ccc(N)nc3)nc(N3CCOCC3)nc21 (stereo not shown) [Compound 134, 5-[9-(2-Methoxy-1-methyl-ethyl)-2-morpholin-4-yl-9H-purin-6-yl]-pyrirlin-2-ylamino] |  | > 6.00 |  | > 6.00 | 
CC(C)n1cnc2c(-c3ccc(N)nc3)nc(N3CCOCC3)nc21 [Compound 135] |  | > 6.00 |  | > 6.00 | 
CC(C)C(C)n1cnc2c(-c3ccc(N)nc3)nc(N3CCOCC3)nc21 (stereo not shown) [Compound 136] |  | > 6.00 |  | > 6.00 | 
CCC(C#N)n1cnc2c(-c3ccc(N)nc3)nc(N3CCOCC3)nc21 (stereo not shown) [Compound 137] |  | 5.30 to 6.00 |  | > 6.00 | 
CCC(CC)n1cnc2c(-c3ccc(N)nc3)nc(N3CCOCC3)nc21 [Compound 138] |  | > 6.00 |  | > 6.00 | 
N#CCn1cnc2c(-c3ccc(O)nc3)nc(N3CCOCC3)nc21 [Compound 139] |  | < 5.30 |  | < 5.30 | 
COCCn1cnc2c(-c3cncc(F)c3)nc(N3CCOCC3)nc21 [Compound 140] |  | 5.30 to 6.00 |  | < 5.30 | 
